Target: T1, Y2 receptors (Homo sapiens, UniProt P49146)
T1 construct: endogenous in cells; host or cells: KAN-Ts cells (membranes)
T1 sequence (P49146 1-381): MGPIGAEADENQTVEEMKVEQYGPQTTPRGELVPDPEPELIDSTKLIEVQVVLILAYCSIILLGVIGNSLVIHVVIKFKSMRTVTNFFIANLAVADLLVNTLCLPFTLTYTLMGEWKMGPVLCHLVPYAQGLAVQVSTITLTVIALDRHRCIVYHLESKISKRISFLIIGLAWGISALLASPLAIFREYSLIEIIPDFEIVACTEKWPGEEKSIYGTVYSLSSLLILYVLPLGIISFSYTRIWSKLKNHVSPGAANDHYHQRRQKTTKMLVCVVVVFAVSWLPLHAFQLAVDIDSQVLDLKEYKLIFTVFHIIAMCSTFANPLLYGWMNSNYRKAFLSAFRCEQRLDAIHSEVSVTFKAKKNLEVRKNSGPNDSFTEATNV
Assay: Radioligand binding assay ([125I]PYY, KAN-Ts cell membranes)
Settings: Table 1, [125I]PYY 80 pM, average of results, read-out: IC50
Summary of the method: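 IC50 values are means of three to eight experiments run in duplicate, fitted sigmoidally against specific binding (defined by […]). Competition used 80 pM [^125I]PYY for 1 h at room temperature on KAN-Ts membranes carrying native Y2, with filtration and scintillation counting.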

IC50	Compound
0.14 µM	O=C(Nc1ccc(N2CCN(C(C(=O)N3CCC(F)(F)C3)c3ccccc3)CC2)c(F)c1)[C@H]1CCOC1 (stereo partly drawn) [Example 151, (S)-Tetrahydro-furan-3-carboxylic acid (4-{4-[2-(3,3-difluoro-pyrrolidin-1-yl)-2-oxo-1-phenyl-ethyl]-piperazin-1-yl}-3-fluoro-phenyl)-amide]
0.17 µM	CCN(CC)C(=O)C(c1ccccc1)N1CCN(c2ccc(NC(=O)C3C(C)(C)C3(C)C)cc2F)CC1 (stereo not shown) [Example 152, 2,2,3,3-Tetramethyl-cyclopropanecarboxylic acid {4-[4-(diethylcarbamoyl-phenyl-methyl)-piperazin-1-yl]-3-fluoro-phenyl}-amide]
0.142 µM	CCC(CC)C(=O)Nc1ccc(N2CCN(C(C(=O)N(CC)CC)c3cc(F)ccc3Br)CC2)c(F)c1 (stereo not shown) [Example 153, N-(4-{4-[(2-Bromo-5-fluoro-phenyl)-diethylcarbamoyl-methyl]-piperazin-1-yl}-3-fluoro-phenyl)-2-ethyl-butyramide]
0.22 µM	CCN(CC)C(=O)C(c1ccccc1)C1CCN(c2ccc(NC(=O)Cc3cc(C)ccc3C)cc2F)CC1 (stereo not shown) [Example 154, 2-(1-{4-[2-(2,5-Dimethyl-phenyl)-acetylamino]-2-fluoro-phenyl}-piperidin-4-yl)-N,N-diethyl-2-phenyl-acetamide]
0.23 µM	CCN(CC)C(=O)C(c1ccccc1)C1CCN(c2ccc(NC(=O)Cc3c(F)cccc3F)cc2F)CC1 (stereo not shown) [Example 156, 2-(1-{4-[2-(2,6-Difluoro-phenyl)-acetylamino]-2-fluoro-phenyl}-piperidin-4-yl)-N,N-diethyl-2-phenyl-acetamide]
0.235 µM	CCN(CC)C(=O)C(c1ccccc1)C1CCN(c2ccc(NC(=O)c3cc(C)ccc3C)cc2F)CC1 (stereo not shown) [Example 157, N-{4-[4-(Diethylcarbamoyl-phenyl-methyl)-piperidin-1-yl]-3-fluoro-phenyl}-2,5-dimethyl-benzamide]
0.24 µM	CCC(CC)C(=O)Nc1ccc(N2CCN(C(C(=O)N3CCC(F)(F)CC3)c3ccc(F)cc3)CC2)c(F)c1 (stereo not shown) [Example 158, N-(4-{4-[2-(4,4-Difluoro-piperidin-1-yl)-1-(4-fluoro-phenyl)-2-oxo-ethyl]-piperazin-1-yl}-3-fluoro-phenyl)-2-ethyl-butyramide]
0.25 µM	CCNC(=O)C(c1cccc(F)c1)N1CCN(c2ccc(NC(=O)C(CC)CC)cc2F)CC1 (stereo not shown) [Example 159, 2-Ethyl-N-(4-{4-[ethylcarbamoyl-(3-fluoro-phenyl)-methyl]-piperazin-1-yl}-3-fluoro-phenyl)-butyramide]
0.26 µM	CCN(CC)C(=O)C(c1ccccc1)C1CCN(c2ccc(NC(=O)c3ccccc3N)cc2F)CC1 (stereo not shown) [Example 160, 2-Amino-N-{4-[4-(diethylcarbamoyl-phenyl-methyl)-piperidin-1-yl]-3-fluoro-phenyl}-benzamide]
0.3 µM	CCN(CC)C(=O)C(c1ccccc1)N1CCN(c2ccc(NC(=O)Cc3ccccc3OC)cc2F)CC1 (stereo not shown) [Example 162, N,N-Diethyl-2-(4-{2-fluoro-4-[2-(2-methoxy-phenyl)-acetylamino]-phenyl}-piperazin-1-yl)-2-phenyl-acetamide]
0.3 µM	CCN(CC)C(=O)C(c1ccccc1)C1CCN(c2ccc(NC(=O)c3cnoc3C)cc2F)CC1 (stereo not shown) [Example 163, 5-Methyl-isoxazole-4-carboxylic acid {4-[4-(diethylcarbamoyl-phenyl-methyl)-piperidin-1-yl]-3-fluoro-phenyl}-amide]

Compound	IC50
CCC(CC)C(=O)Nc1ccc(N2CCN(C(C(=O)N(CC)CC)c3ccc(F)cc3)CC2)c(F)c1 (stereo not shown) [Example 155, N-(4-{4-[Diethylcarbamoyl-(4-fluoro-phenyl)-methyl]-piperazin-1-yl}-3-fluoro-phenyl)-2-ethyl-butyramide]	0.2 µM
CCN(CC)C(=O)C(c1ccccc1)N1CCN(c2ccc(NC(=O)CC3CC3)cc2F)CC1 (stereo not shown) [Example 161, 2-{4-[4-(2-Cyclopropyl-acetylamino)-2-fluoro-phenyl]-piperazin-1-yl}-N,N-diethyl-2-phenyl-acetamide]	0.3 µM
